Assay results as given in patent EP0117578A2, “Azole-substituted alcohol derivatives” (SHIONOGI & CO., LTD., priority 1983, dated 1984).
In brackets after ≈: the same amount, converted by molar mass. Each block holds one molecule with its values, some of them ahead of it.

How the values were obtained:
[1] = system: Trichophyton asteroides; test: in vitro antifungal test, minimum inhibitory concentration (MIC); format: cell-based; settings: Sabouraud's dextrose broth
Description: Sabouraud's dextrose broth was used as a culture medium.

[2] = system: dumping-off pathogen, Rhizoctonia solani; test: Control of dumping-off in cucumber seedlings; format: in vivo; settings: cucumber seeds, 14 days after sowing; for Disease degree (%): 30 ml at 500 ppm applied to the soil, 30 ± 2 °C; for Control (%): 500 ppm applied to the soil, calculated from disease degree
Protocol: Twenty seeds of cucumber (cultivar: Matsukaze) were sown in 150 g of sterilized soil in 9 cm pot. The soil surface was covered with 15 g of inoculum which contained a dumping-off pathogen, Rhizoctonia solani precultured in a mixture of wheat bran and sterilized soil. Then 30 ml of preparation with a test compound at a concentration of 500 ppm was applied to the soil and the pot was kept at 30 ± 2 °C in a humid chamber.

[3] = system: Candida albicans KE-2; test: Inhibition test against the formation of the pseudohyphae of Candida albicans; format: cell-based; settings: KE2; Candida albicans KE-2, 1 x 10^6 cells/ml; Eagle's MEM with 20 % bovine serum; 37°C, 18 hours; two-fold dilution; read-out: Inhibitory Concentration against Pseudohyphae Formation
Protocol: [Inhibition test against the formation of the pseudohyphae of Candida albicans] To an Eagle's MEM medium (Nissan 2; Nissui Pharmaceutical Co., Ltd.) was added 20 % bovine serum, onto which yeast cells of Candida albicans KE-2 were inoculated so that the terminal inoculum size would amount to 1 x 10^6 cells/ml. Then, a test compound was added to the medium by a two-fold dilution method, and cultivation was performed at 37°C for 18 hours. After termination of the cultivation, the cells of serial dilution on each medium were smeared and fixed on an object glass, then stained by the Giemsa's staining method, and the occurrence of the pseudohyphae was observed by microscopy. Minimum concentration for inhibiting the formation of the pseudohyphae was regarded as Inhibitory Concentration against Pseudohyphae Formation.

[4] = system: cucurbit powdery mildew (Sphaerotheca fuliginea); test: Control of powdery mildew in cucumber; format: in vivo; parameters: key: O: Disease sign was detected for nearly 100 % area in the inoculated leaf surface; 3: Disease sign was detected for about 50 % area; 5: Disease sign was detected for about 30 % area; 7: Disease sign was detected for about 20 % area; 9: Disease sign was slightly detected; 10: No disease sign was detected; settings: degree of mildew infection 10 days after inoculation; for Soil application (10 ppm) Prevention: 10 ml at 10 ppm applied to the soil before inoculation; for Foliar spray (125 ppm) Supprension: sprayed at 125 ppm 2 days after inoculation; for Foliar spray (125 ppm) Prevention: sprayed at 125 ppm before inoculation
Protocol: Three ml of preparation containing a test compound at a concentration of 125 ppm was sprayed foliarly to the first leaf of young cucumber plant (cultivar: Matsukaze) which was grown in 9 cm pot in a glasshouse. Similar preparation in 10 ml with the test compound at a concentration of 10 ppm was applied directly to the soil in another pot with cucumber. These plants were inoculated subsequently with conidia suspension of cucurbit powdery mildew (Sphaerotheca fuliginea) and kept in a glasshouse at the temperature of 25 ± 2 °C. Yet in another experiment cucumber in pot was inoculated first with conidia of Sphaerotheca fuliginea and after 2 days the test compound was sprayed foliarly as above to examine its suppressive ability against development of the disease. For all these cucumber plants were observed 10 days after each inoculation and degrees of mildew infection were given as follows: • O : Disease sign was detected for nearly 100 % area in the inoculated leaf surface • 3 : Disease sign was detected for about 50 % area • 5 : Disease sign was detected for about 30 % area • 7 : Disease sign was detected for about 20 % area • 9 : Disease sign was slightly detected • 10: No disease sign was detected

[5] = system: Candida albicans KE-2; test: Therapeutic effect against experimental candidiasis in mice; format: in vivo; settings: female Jcl-ICR mice infected intravenously; 50 mg/kg orally twice a day for 5 days; survival at the 15th day
Protocol: [Therapeutic effect against experimental candidiasis in mice] Candida albicans KE-2 was cultivated in a Sabouraud's dextrose agar at 28°C for 48 hours, and the resulting culture was suspended in the Sabouraud's dextrose broth. The cells (5 x 105) were administered intravenously at the tail of female Jcl-ICR mice (4 weeks age, body weight 18 - 20 g). The test compound suspended in 2 % gum-arabic was orally administered at a dose of 50 mg/kg twice a day for 5 days: on the first day, the test compound was administered twice i.e. immediately after the infection and 2 hours later; on the second day or later, 24 hours after the administration of the previous day respectively. An infected group to which no test compound was administered was regarded as a control group. Eight mice were employed per group in the control group and the test groups to which the test compound was administered. Therapeutic effect was evaluated on the survival rate at the 15th day since the day of infection; the result is shown below.

[6] = system: sheath blight fungus (Rhizoctonia solani); test: Control of sheath blight in rice; format: in vivo; settings: rice sprayed foliarly at 500 ppm, 5 days
Protocol: Rice (cultivar: Aichi-asahi) was grown in pots in a glasshouse for about 3 months and the plant in each pot was sprayed foliarly with 5 ml of preparation containing a test compound at a concentration of 500 ppm. Then the rice was inoculated at the stem near the soil with sheath blight fungus (Rhizoctonia solani) which was previously cultured in rice husks. The inoculated plant was placed in a humid (r.h. 97 %) chamber at 28°C for 5 days.

[7] = system: cucumber downy mildew (Pseudoperonospora cubensis); test: Control of cucumber downy mildew; format: in vivo; settings: cucumber leaf sprayed at 125 ppm, 10 days
Protocol: The first leaf of young cucumber plant (cultivar : Matsukaze) grown in pot was sprayed with 3 ml of preparation containing a test compound at a concentration of 125 ppm. Five small droplets of suspension of sporangia of cucumber downy mildew (Pseudoperonospora cubensis) were applied to the leaf surface and the pot was kept at 22 ± 2°C under humid condition for 10 days. Then disease degree of downy mildew symptom developed was determined by the following method : [formula] • where, a : Number of inoculations showing typical disease symptom • b : Number of inoculations at which chlorosis was developed • c : Number of inoculations at which chlorosis was slightly developed • d : Number of inoculations at which no disease symptoms were developed Disease degree in Disease degree in [formula]

Structure (SMILES): Cc1ccc(C(=O)C(O)(Cn2cncn2)c2ccc(C)cc2)cc1 (centres unmarked) [compound 9]
- MIC [1]: 1.56 µg/mL (≈ 4.85 µM)

Structure (SMILES): O=C(c1ccccc1Cl)C(O)(Cn1cncn1)c1ccccc1Cl (centres unmarked) [compound 10]
- Disease degree (%) [2]: 8%
- Control (%) [2]: 92%
- MIC [1]: 0.1 µg/mL (≈ 0.276 µM)
- minimal effective concentration [3]: 0.08 µg/mL

Structure (SMILES): O=C(c1ccc(Cl)cc1Cl)C(O)(Cn1cncn1)c1ccc(Cl)cc1Cl (centres unmarked) [compound 6]
- MIC [1]: 0.1 µg/mL (≈ 0.232 µM)
- minimal effective concentration [3]: 0.16 µg/mL

Structure (SMILES): O=C(c1ccc(F)cc1)C(O)(Cn1cncn1)c1ccccc1Cl (centres unmarked) [compound 19]
- Survival Rate [5]: 100%

Structure (SMILES): O=C(c1cccc(Cl)c1)C(O)(Cn1cncn1)c1cccc(Cl)c1 (centres unmarked) [compound 11]
- MIC [1]: 3.13 µg/mL (≈ 8.64 µM)

Structure (SMILES): CCCC(=O)C(O)(Cn1cncn1)c1ccc(Cl)cc1Cl (centres unmarked) [compound 25]
- MIC [1]: 0.1 µg/mL (≈ 0.305 µM)
- minimal effective concentration [3]: 0.04 µg/mL
- Growth of mycelia (mm) ([6]; 28°C, r.h. 97 %): 20 mm
- Suppression (%) ([6]; calculated from growth of mycelia): 90%
- Soil application (10 ppm) Prevention [4]: 10
- Foliar spray (125 ppm) Supprension [4]: 10
- Foliar spray (125 ppm) Prevention [4]: 10

Structure (SMILES): COc1ccc(C(=O)C(O)(Cn2cncn2)c2ccc(OC)cc2)cc1 (centres unmarked) [compound 7]
- MIC [1]: 12.5 µg/mL (≈ 35.4 µM)

Structure (SMILES): CCCCC(=O)C(O)(Cn1cncn1)c1ccc(Cl)cc1Cl (centres unmarked) [compound 23]
- MIC [1]: 0.1 µg/mL (≈ 0.292 µM)

Structure (SMILES): O=C(c1ccc(Cl)cc1Cl)C(O)(Cn1ccnc1)c1ccc(Cl)cc1Cl (centres unmarked) [Compound No. 1, 2',4'-dichloro-2-(2,4-dichlorophenyl)-2-hydroxy-3-(1H-imidazol-1-yl)propiophenone]
- MIC [1]: 0.1 µg/mL (≈ 0.232 µM)
- Foliar spray (125 ppm) Supprension [4]: 10
- Foliar spray (125 ppm) Prevention [4]: 10

Structure (SMILES): CCC(C)C(=O)C(O)(Cn1cncn1)c1ccc(Cl)cc1Cl (centres unmarked) [compound 28]
- minimal effective concentration [3]: 0.02 µg/mL

Structure (SMILES): OC(c1ccc(Cl)cc1Cl)C(O)(Cn1cncn1)c1ccc(F)cc1 (centres unmarked) [compound 78]
- minimal effective concentration [3]: 0.31 µg/mL

Structure (SMILES): O=C(c1ccccc1F)C(O)(Cn1cncn1)c1ccc(Cl)cc1Cl (centres unmarked) [compound 46]
- Disease degree (%) [2]: 0%
- Control (%) [2]: 100%
- Survival Rate [5]: 87.5%
- Disease degree (%) ([7]; 22 ± 2°C, humid): 20%
- Control (%) ([7]; calculated from disease degree): 80%
- Soil application (10 ppm) Prevention [4]: 5 (Disease sign was detected for about 30 % area)
- Foliar spray (125 ppm) Supprension [4]: 10
- Foliar spray (125 ppm) Prevention [4]: 10

Structure (SMILES): O=C(c1ccc(F)cc1)C(O)(Cn1cncn1)c1ccc(Cl)cc1Cl (centres unmarked) [compound 8]
- Disease degree (%) [2]: 5%
- Control (%) [2]: 95%
- minimal effective concentration [3]: 1.25 µg/mL

Second part, led by results:

- MIC [1]: 0.1 µg/mL (≈ 0.325 µM)
Structure (SMILES): CCC(C)C(=O)C(O)(Cn1cncn1)c1ccc(Cl)cc1 (centres unmarked) [compound 34]

- MIC [1]: 0.8 µg/mL (≈ 2.72 µM)
Structure (SMILES): CCCC(=O)C(O)(Cn1cncn1)c1ccccc1Cl (centres unmarked) [compound 32]
- minimal effective concentration [3]: 0.04 µg/mL
- Soil application (10 ppm) Prevention [4]: 10
- Foliar spray (125 ppm) Supprension [4]: 10
- Foliar spray (125 ppm) Prevention [4]: 10

- MIC [1]: 1.56 µg/mL (≈ 4.71 µM)
Structure (SMILES): OC(c1ccc(F)cc1)C(O)(Cn1cncn1)c1ccc(F)cc1 (centres unmarked) [compound 71]
- Soil application (10 ppm) Prevention [4]: 10
- Foliar spray (125 ppm) Supprension [4]: 10
- Foliar spray (125 ppm) Prevention [4]: 10

- MIC [1]: 0.1 µg/mL (≈ 0.275 µM)
Structure (SMILES): OC(c1ccccc1Cl)C(O)(Cn1cncn1)c1ccccc1Cl (centres unmarked) [compound 69]
- minimal effective concentration [3]: 0.08 µg/mL

- MIC [1]: 0.1 µg/mL (≈ 0.262 µM)
Structure (SMILES): OC(c1ccc(F)cc1)C(O)(Cn1cncn1)c1ccc(Cl)cc1Cl (centres unmarked) [compound 67]
- minimal effective concentration [3]: 0.08 µg/mL
- Survival Rate [5]: 100%

- MIC [1]: 1.6 µg/mL (≈ 5.41 µM)
Structure (SMILES): CCCC(O)C(O)(Cn1cncn1)c1ccc(Cl)cc1 (centres unmarked) [compound 80]

- MIC [1]: 0.1 µg/mL (≈ 0.231 µM)
Structure (SMILES): OC(c1ccc(Cl)cc1Cl)C(O)(Cn1cncn1)c1ccc(Cl)cc1Cl (centres unmarked) [compound 63, 1,2-bis(2,4-dichlorophenyl)-3-(1H-1,2,4-triazol-1-yl)-propylene glyco]
- minimal effective concentration [3]: 0.08 µg/mL
- Survival Rate [5]: 75%
